Patent US20250177555A1 (priority 2022, published 2025)
pIC50: −log10 of the molar value.

Assays:
[1] = test system: CNV-G gectosome cell entry; assay type: cell-based, human; conditions: read-out: IC50, CNV-G gectosome inhibition
[2] = test system: CNV-G pseudotyped lentiviral infection; assay type: cell-based
[3] = test system: CNV-G gectosome uptake, 293ColorSwitch cells; assay type: cell-based
[4] = test system: VSV-G gectosome uptake, 293ColorSwitch cells; assay type: cell-based; conditions: Cre cargo
[5] = target: BlaM-Vpr-GFP1-10; experiment: cell-based or functional assay

C/C1=C/C(=O)O[C@@H]2C[C@@H](CC[C@H](C)/C=C\CC1)O[C@@](O)([C@@H]1CSC(=O)N1)C2 [Latrunculin B]
pIC50 [1]: 5.71
effect on CNV-G pseudotyped lentiviral infection [2]: effect of Latrunculin B on CNV-G

CCCCCCCCCCCCCCCCOP(=O)([O-])OCC[N+](C)(C)C [Milterfosine]
inhibition of CNV-G gectosome uptake [3]: specifically inhibit
inhibition of VSV-G gectosome uptake [4]: NOT VSV-G gectosome uptake

COc1ccc2c(c1)CC[C@@H]1[C@@H]2CC[C@]2(C)[C@@H](NCCCCCCN3C(=O)C=CC3=O)CC[C@@H]12 [U-73122]
pIC50 [1]: 5.52

CNV-G-EGFP (from UniProt P13180 23-530)
efficiency of cargo transfer against the CNV-G-GFP11 and BlaM-GFP1-10 pair [5]: 100 fold less
